Reference: ChEMBL document CHEMBL1151048, “Synthesis and antimicrobial activity of 5-thioabbeymycin: limitations of the iminothioether approach to carbinolamine-containing pyrrolobenzodiazepines” (1993)

How the values were obtained:
Type in all cases: functional
Pseudomonas aeruginosa [1] = experiment: Minimum inhibitory concentration against Pseudomonas aeruginosa; value ranges from 2-4 ug cm-3
Pseudomonas aeruginosa [2] = experiment: Minimum bactericidal concentration against Pseudomonas aeruginosa; value ranges from 2-4 ug cm-3
Staphylococcus aureus [3] = experiment: Minimum bactericidal concentration against Staphylococcus aureus; value ranges from 2-8 ug cm-3
Staphylococcus aureus [4] = experiment: Minimum inhibitory concentration against Staphylococcus aureus; value ranges from 2-4 ug cm-3

MIC (Pseudomonas aeruginosa [1]): 2 ug cm**-3
MIC (Staphylococcus aureus [4]): 2 ug cm**-3
Compound: O[C@H]1C[C@H]2C=Nc3ccccc3C(=S)N2C1
MBC (Pseudomonas aeruginosa [2]): 2 ug cm**-3
MBC (Staphylococcus aureus [3]): 2 ug cm**-3
